Measured values: patent publication US5935606A, “Reversing excitotoxic CNS damage by cellular implantation” (priority 1995, dated 1999)

Legend:
NMDA receptor [1] = test: NMDA-induced mechanical hyperalgesia (Randall-Selitto test) in rats with spinal subarachnoid transplants; type: in vivo, rat; conditions: for effect of antagonist pretreatment on NMDA dose-response curve, noxious mechanical stimuli, compared to saline pretreatment: adrenal medullary transplanted animals, s.c. 20 min prior to NMDA (2.5, 5.0, 10.0 nmol), naloxone 2.0 mg/kg, phentolamine 10.0 mg/kg
Protocol: Experimental procedures were approved and carried out in accordance the Guidelines of the Animal Care Committee, University of Illinois at Chicago. Male Sprague-Dawley rats weighing 325-375 g (Sasco, Madison, Wis.) at the beginning of the study were used as both graft donors and recipients. Graft recipients were anesthetized (Nembutal, 40 mg/kg, i.p., supplemented as necessary) and implanted with intrathecal catheters according to methods described by Yaksh and Rudy [T. L. Yaksh and T. A. Rudy, Physiol. Behav., 17:1031-1036 (1976)]. Catheters were made of PE10 tubing with a knot sealed with dental acrylic at 7.5 cm. The catheters were threaded through a slit in the atlanto-occipital membrane to the lumbar spinal subarachnoid space, and the free ends were anchored to the skull using cyanoacrylate. Donor adrenal medullary tissue was dissected from cortical tissue and cut into small pieces (<0.5 cm^3). Adrenal medullary tissue from two adrenal glands was used as this amount was shown in previous studies to produce significant antinociception using several behavioral tests [A. T. Hama and J. Sagen, Pain, 52:223-231 (1993); J. Sagen et al., Pain, 42:69-79 (1990); H. Wang and J. Sagen, J. Neural Transplant. Plastic., 5:49-64 (1994)]. Control animals received equal volumes of striated muscle tissue from donors. […]
(§1) Animals were allowed to recover from surgical procedures for two weeks prior to commencement of behavioral testing. Responses to noxious and innocuous stimuli were determined using three tests sequentially: the Hargreaves model for thermal hyperalgesia [K. M. Hargreaves et al., Pain, 32:223-231 (1988)], the Randall-Selitto test for mechanical hyperalgesia, and von Frey thresholds for tactile allodynia. […] The apparatus automatically terminates at a scale reading of 25 (=1000 g). […]
(§2) The first group of animals was used in order to determine the time course and dose-responsiveness to intrathecally injected NMDA. […] Baseline responses to all three tests were assessed at the beginning of each test day prior to drug injection. […]

NMDA receptor [2] = test: NMDA-induced thermal hyperalgesia (Hargreaves paw withdrawal latency) in rats with spinal subarachnoid transplants; type: in vivo, rat; conditions: for effect of antagonist pretreatment on NMDA dose-response curve, noxious thermal stimuli, compared to saline pretreatment: adrenal medullary transplanted animals, s.c. 20 min prior to NMDA (2.5, 5.0, 10.0 nmol), naloxone 2.0 mg/kg, phentolamine 10.0 mg/kg
Protocol: Experimental procedures were approved and carried out in accordance the Guidelines of the Animal Care Committee, University of Illinois at Chicago. Male Sprague-Dawley rats weighing 325-375 g (Sasco, Madison, Wis.) at the beginning of the study were used as both graft donors and recipients. Graft recipients were anesthetized (Nembutal, 40 mg/kg, i.p., supplemented as necessary) and implanted with intrathecal catheters according to methods described by Yaksh and Rudy [T. L. Yaksh and T. A. Rudy, Physiol. Behav., 17:1031-1036 (1976)]. Catheters were made of PE10 tubing with a knot sealed with dental acrylic at 7.5 cm. The catheters were threaded through a slit in the atlanto-occipital membrane to the lumbar spinal subarachnoid space, and the free ends were anchored to the skull using cyanoacrylate. Donor adrenal medullary tissue was dissected from cortical tissue and cut into small pieces (<0.5 cm^3). Adrenal medullary tissue from two adrenal glands was used as this amount was shown in previous studies to produce significant antinociception using several behavioral tests [A. T. Hama and J. Sagen, Pain, 52:223-231 (1993); J. Sagen et al., Pain, 42:69-79 (1990); H. Wang and J. Sagen, J. Neural Transplant. Plastic., 5:49-64 (1994)]. Control animals received equal volumes of striated muscle tissue from donors. Graft tissue was implanted in the spinal subarachnoid space via laminectomy at the level of the lumbar enlargement as described previously [J. Sagen et al., Brain Res., 384:189-194 (1986); J. Sagen et al., Pain, 42:69-79 (1990)]. Following surgical procedures, musculature was sutured (4-0 silk), and the skin closed with wound clips. Animals were housed individually and allowed food and water ad libitum.
as §1, with “allodynia. To assess response to a noxious thermal stimulus, rats were placed on an elevated glass floor beneath an inverted clear plastic cage, and a radiant heat source beneath the glass was aimed at the plantar surface of the hindpaw. The onset of light activated a timer which was terminated by a hindpaw withdrawal response.” for “allodynia.”
as §2

NMDA receptor [3] = test: NMDA-induced tactile allodynia (von Frey thresholds) in rats with spinal subarachnoid transplants; type: in vivo, rat; conditions: adrenal medullary transplanted animals; s.c. 20 min prior to NMDA (2.5, 5.0, 10.0 nmol); naloxone 2.0 mg/kg, phentolamine 10.0 mg/kg
Protocol: Experimental procedures were approved and carried out in accordance the Guidelines of the Animal Care Committee, University of Illinois at Chicago. Male Sprague-Dawley rats weighing 325-375 g (Sasco, Madison, Wis.) at the beginning of the study were used as both graft donors and recipients. Graft recipients were anesthetized (Nembutal, 40 mg/kg, i.p., supplemented as necessary) and implanted with intrathecal catheters according to methods described by Yaksh and Rudy [T. L. Yaksh and T. A. Rudy, Physiol. Behav., 17:1031-1036 (1976)]. Catheters were made of PE10 tubing with a knot sealed with dental acrylic at 7.5 cm. […]
as §1, §2

NMDA receptors [4] = test: [3H]CGP-39653 saturation binding, spinal cord membranes; conditions: normal rat whole spinal cord; one-site binding
Protocol: (§3) Changes in NMDA receptor levels were determined at three weeks following nerve injury (one week following transplantation), as a marked distinction in responses to sensory stimuli between adrenal medullary and control transplanted animals can be made at this time point. […] [^3 H]CGP-39653 (D,L-(E)-2-amino-4-propyl-5-phosphono-3-pentenoate), a selective high-affinity competitive antagonist at NMDA receptors, was used to label the binding sites. In preliminary experiments, binding characteristics of this ligand were determined in the rat spinal cord. Saturation assays were performed on whole spinal cord tissue, and the results compared to those obtained in cortical membranes. NMDA binding sites were analyzed using previously described procedures with slight modification [M. A. Sills et al., Eur. J. Pharmacol., 192:19-24 (1991)]. Animals were decapitated and the spinal cords were rapidly extruded with saline pressure. […] This volume of tissue corresponded to approximately 110 μg of protein as determined using the Bradford method (BioRad, Richmond, Calif.). […] Nonspecific binding was determined in parallel tubes containing 100 mM L-glutamiate. […] Radioactivity was counted with a Beckman 3270 scintillation counter at 48-52% efficiency. Estimates of binding parameters were determined using the program LIGAND [P. J. Munson and D. Rodbard, Anal. Biochem., 197:220-239 (1980)].

NMDA receptors [5] = test: [3H]CGP-39653 saturation binding, cortical membranes; conditions: normal rat cortex; one-site binding
Protocol: as §3

SMILES	effect of antagonist pretreatment on NMDA dose-response curve, noxious mechanical stimuli, compared to saline pretreatment (NMDA receptor [1])	effect of antagonist pretreatment on NMDA dose-response curve, noxious thermal stimuli, compared to saline pretreatment (NMDA receptor [2])	effect of antagonist pretreatment on NMDA dose-response curve, innocuous tactile stimuli, compared to saline pretreatment (NMDA receptor [3])	further results
Cc1ccc(N(CC2=NCCN2)c2cccc(O)c2)cc1 [phentolamine]	significantly shifted the dose-response curves downward	significantly shifted the dose-response curves downward	significantly shifted the dose-response curves downward	
CN[C@H](CC(=O)O)C(=O)O [NMDA, N-methyl-D-aspartate]				time of peak effect, mechanical hyperalgesia (NMDA receptor [1]; intrathecal NMDA): 30 min; time to significant thermal hyperalgesia in control animals (NMDA receptor [2]; 5 nmol NMDA i.t., control transplanted animals, P<0.05): ≤ 5 min; time of peak effect, thermal hyperalgesia (NMDA receptor [2]; intrathecally administered NMDA, all cases): 30 min
CCC/C(=C\C(N)C(=O)O)CP(=O)(O)O (racemic) [[^3 H]CGP-39653, D,L-(E)-2-amino-4-propyl-5-phosphono-3-pentenoate]				Kd (NMDA receptors [4]): 12.9 ± 1.8 nM; Kd (NMDA receptors [5]): 15.4 nM
C=CCN1CC[C@]23c4c5ccc(O)c4O[C@H]2C(=O)CC[C@@]3(O)[C@H]1C5 [naloxone]	no effect	no effect	no effect	
